Legend:
Type in all cases: in vivo
corn [1] = assay: Pre-emergence safener action in corn with the herbicide isoxaflutol; details: greenhouse, visual scoring after 3 to 4 weeks
Text: (§1) The damage to the plants is scored visually using a scale of 0-100%, in comparison to control plants:
(§2) 0%=no noticeable effect compared to the untreated plant
(§3) 100%=the treated plants dies.
Seeds or rhizome pieces of monocotyledonous and dicotyledonous weed plants and crop plants were placed in sandy loam soil in plastic pots and covered with soil. The herbicide/safener active compound combinations according to the invention, formulated as suspension emulsion concentrates, and in parallel tests the individual active compounds formulated in a corresponding manner, were then, at various dosages at a water application rate of 600 to 800 l/ha (converted), applied to the surface of the covering soil.
After the treatment, the pots were placed in the greenhouse and kept under good growth conditions for the weeds and the crop plants. Visual scoring of the plant damage or emergence damage was carried out after the test plants had emerged after a test period of 3 to 4 weeks, in comparison to untreated controls.

barley = assay: Post-emergence safener action in barley with the herbicide mesosulfuron-methyl; details: greenhouse, visual scoring of damage
Text: as §1, §2, §3
(§4) Seeds or rhizome pieces of monocotyledonous and dicotyledonous harmful plants and crop plants are placed in sandy loam soil in plastic pots, covered with soil and cultivated in the greenhouse under good growth conditions. Alternatively, harmful plants encountered in paddy rice cultivation are cultivated in pots in which the surface of the soil is covered by up to 2 cm of water. Three weeks after sowing, the test plants are treated at the three-leaf stage. The herbicide/safener active compound combinations according to the invention, formulated as emulsion concentrates, and in parallel tests the individual active compounds formulated in a corresponding manner, are sprayed at various dosages at a water application rate of […] (converted) onto the green parts of the plants, and, after the test plants were left to stand in the greenhouse for about 2 to 3 weeks under optimum growth conditions, the effect of the preparations is scored visually in comparison to untreated controls. In the case of rice or harmful plants encountered in the cultivation of rice, the active compounds are also added directly to the irrigation water (application analogously to the so-called granule application) or sprayed onto the plants and into the irrigation water. […]

corn [2] = assay: Post-emergence safener action in corn with the herbicide tembotrione; details: greenhouse, visual scoring of damage
Text: as §1, §2, §3, §4

Compound	safener action in combination with the herbicide isoxaflutol (corn [1])	safener action for the herbicide mesosulfuron-methyl (barley)	safener action for the herbicide tembotrione (corn [2])
C#CCNC(=O)c1ccc(C(F)(F)C(F)(F)F)[nH]c1=O [Compound 380]	good safener action		
O=C(NC1CC1)c1ccc(C(F)(F)C(F)(F)C(F)(F)F)[nH]c1=O [Compound 1600]		good safener action	good safener action
CCCC(C)NC(=O)c1cc(Cl)c(C(F)(F)F)[nH]c1=O (centres unmarked) [Compound 498]		good safener action	good safener action
CC(C)NC(=O)c1ccc(C(F)(F)C(F)(F)C(F)(F)F)[nH]c1=O [Compound 1599]		good safener action	good safener action
CC(C)NC(=O)c1cc(Br)c(C(F)(F)F)[nH]c1=O [Compound 913]		good safener action	good safener action
CCCNC(=O)c1ccc(C(F)(F)C(F)(F)C(F)(F)F)[nH]c1=O [Compound 1598, 6-(Heptafluoropropyl)-2-oxo-N-propyl-1,2-dihydropyridine-3-carboxamide]		good safener action	good safener action
CCOC(CNC(=O)c1ccc(C(F)(F)Cl)[nH]c1=O)OCC [Compound 169]		good safener action	good safener action
CCC(CC)NC(=O)c1cc(Br)c(C(F)(F)F)[nH]c1=O [Compound 960]		good safener action	good safener action
CCONC(=O)c1ccc(C(F)(F)Cl)[nH]c1=O [Compound 193]	good safener action	good safener action	
CN(C)C(=O)c1ccc(C(F)(F)F)[nH]c1=O [Compound 9]		good safener action	good safener action
CCN(CC)C(=O)c1ccc(C(F)(F)F)[nH]c1=O [Compound 14]		good safener action	good safener action
NC(=O)c1ccc(C(F)(F)Cl)[nH]c1=O [Compound 114]		good safener action	good safener action
CCN(C)C(=O)c1ccc(C(F)(F)F)[nH]c1=O [Compound 10]		good safener action	good safener action
C=CCNC(=O)c1cc(Br)c(C(F)(F)F)[nH]c1=O [Compound 943, N-Allyl-5-bromo-2-oxo-6-(trifluoromethyl)-1,2-dihydropyridine-3-carboxamide]		good safener action	good safener action
CC(C)CCNC(=O)c1ccc(C(F)(F)Cl)[nH]c1=O [Compound 146]		good safener action	good safener action
O=C(NCC(F)(F)F)c1ccc(C(F)(F)Cl)[nH]c1=O [Compound 140]		good safener action	good safener action
COCC(C)NC(=O)c1ccc(C(F)(F)Cl)[nH]c1=O (centres unmarked) [Compound 178]		good safener action	good safener action
C=CCNC(=O)c1cc(Cl)c(C(F)(F)F)[nH]c1=O [Compound 489]		good safener action	good safener action
CC(C)NC(=O)c1ccc(C(F)F)[nH]c1=O [Compound 232, 6-Difluoromethyl-N-isopropyl-2-oxo-1,2-dihydropyridine-3-carboxamide]	good safener action		
O=C(c1ccc(C(F)(F)Cl)[nH]c1=O)N1CCOCC1 [Compound 214]		good safener action	good safener action
COC(=O)CN(C)C(=O)c1ccc(C(F)(F)F)[nH]c1=O [Compound 72]	good safener action		
NC(=O)c1cc(Br)c(C(F)(F)F)[nH]c1=O [Compound 909]		good safener action	good safener action
COCC(C)NC(=O)c1ccc(C(F)(F)F)[nH]c1=O (centres unmarked) [Compound 64]		good safener action	good safener action
COCCCNC(=O)c1ccc(C(F)(F)F)[nH]c1=O [Compound 66]		good safener action	good safener action

Compound	safener action in combination with the herbicide isoxaflutol (corn [1])	safener action for the herbicide mesosulfuron-methyl (barley)	safener action for the herbicide tembotrione (corn [2])
CCCNC(=O)c1cc(Br)c(C(F)(F)Cl)[nH]c1=O [Compound 1026]		good safener action	good safener action
COC(=O)CNC(=O)c1ccc(C(F)(F)F)[nH]c1=O [Compound 71]			good safener action
CN(C)/C=N/C(=O)c1ccc(C(F)(F)F)[nH]c1=O [Compound 105, N-[(Dimethylamino)methylene]-2-oxo-6-(trifluoromethyl)-1,2-dihydropyridine-3-carboxamide]		good safener action	good safener action
O=C(NC1CCCCC1)c1ccc(C(F)(F)F)[nH]c1=O [Compound 19]	good safener action		
C=CCNC(=O)c1ccc(C(F)(F)F)[nH]c1=O [Compound 34]		good safener action	good safener action
C#CCNC(=O)c1ccc(C(F)(F)Cl)[nH]c1=O [Compound 153]		good safener action	good safener action
CCONC(=O)c1ccc(C(F)(F)F)[nH]c1=O [Compound 79]		good safener action	good safener action
CCCC(C)NC(=O)c1ccc(C(F)F)[nH]c1=O (centres unmarked) [Compound 271]	good safener action		
C=CCN(CC=C)C(=O)c1ccc(C(F)(F)F)[nH]c1=O [Compound 36]		good safener action	good safener action
CCNC(=O)c1cc(Br)c(C(F)(F)F)[nH]c1=O [Compound 911]		good safener action	good safener action
CNC(=O)c1ccc(C(F)(F)C(F)(F)C(F)(F)F)[nH]c1=O [Compound 1596]			good safener action
CNC(=O)c1cc(Cl)c(C(F)(F)F)[nH]c1=O [Compound 456]			good safener action
O=C(NC1CCC1)c1cc(Br)c(C(F)(F)C(F)(F)C(F)(F)F)[nH]c1=O [Compound 1758]			good safener action
CC(C)(C)NC(=O)c1ccc(C(F)(F)Cl)[nH]c1=O [Compound 122]	good safener action		
CC(NC(=O)c1ccc(C(F)(F)Cl)[nH]c1=O)c1ccccc1 (centres unmarked) [Compound 210]			good safener action
COC(=O)CCNC(=O)c1ccc(C(F)(F)F)[nH]c1=O [Compound 75]			good safener action
C=CCNC(=O)c1ccc(C(F)(F)Cl)[nH]c1=O [Compound 148]		good safener action	good safener action
CC(C)(C)CNC(=O)c1ccc(C(F)(F)F)[nH]c1=O [Compound 24]			good safener action
CC(C)CCNC(=O)c1ccc(C(F)(F)F)[nH]c1=O [Compound 32]			good safener action
O=C(c1ccc(C(F)(F)Cl)[nH]c1=O)N1CCCC1 [Compound 217]	good safener action		
CCNC(=O)c1cc(Cl)c(C(F)(F)F)[nH]c1=O [Compound 457]		good safener action	good safener action
CCC(C)NC(=O)c1cc(Cl)c(C(F)(F)F)[nH]c1=O (centres unmarked) [Compound 496]		good safener action	good safener action
C#CCNC(=O)c1ccc(C(F)(F)F)[nH]c1=O [Compound 39]	good safener action		
CC(C)NC(=O)c1ccc(C(F)(F)C(F)(F)F)[nH]c1=O [Compound 345]		good safener action	good safener action

— patent US9102623B2, “Pyridinecarboxamides, useful-plant-protecting composition comprising them and processes for their preparation and their use” (Bayer Cropscience AG, priority 2007, dated 2015)
